Measurements: publication PMC10361207, “Cannabinoid and Opioid Receptor Affinity and Modulation of Cancer-Related Signaling Pathways of Machaeriols and Machaeridiols from Machaerium Pers” (Molecules, 2023)
Values after ≈ are worked out from the molar mass of the structure shown. Read-outs that look alike come from different tables or passages of the source.

Key:
CB2 receptor = molecular target: T1, CB2 receptor (Homo sapiens, UniProt P34972); assay: Competitive radioligand binding assay, CB2; conditions: for Percent displacement, CB2: 10 μM, [3H]-CP55,940
T1 construct: expressed in transfected cells; host or cells: HEK293 (ATCC), stably transfected; membranes
T1 sequence (P34972 whole entry): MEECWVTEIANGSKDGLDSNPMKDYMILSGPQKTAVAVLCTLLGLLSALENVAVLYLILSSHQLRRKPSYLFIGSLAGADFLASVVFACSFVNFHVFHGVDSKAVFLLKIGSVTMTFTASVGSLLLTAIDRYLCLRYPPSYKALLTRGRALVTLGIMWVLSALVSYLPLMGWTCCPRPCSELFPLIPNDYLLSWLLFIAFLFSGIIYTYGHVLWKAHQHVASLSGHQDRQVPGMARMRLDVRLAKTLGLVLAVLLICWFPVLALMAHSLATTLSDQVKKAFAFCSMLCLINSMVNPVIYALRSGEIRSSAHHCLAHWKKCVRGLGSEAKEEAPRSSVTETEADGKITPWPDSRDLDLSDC
Description: (§1) HEK293 cells stably transfected with δ, κ and μ opioid subtypes were a generous gift from Roth Laboratories (University of North Carolina at Chapel Hill, N.C., USA). CB and opioid cells were maintained as previously described.
(§2) Membranes were purified by first washing the cells with cold PBS and scraping the cells into cold 50 mM Tris-HCl, pH 7.4 buffer, which was centrifuged at 5200× g for 10 min at 4 °C; next, the supernatant was discarded, and the pellet was washed with more Tris-HCl buffer, homogenized via a Sonic Dismembrator (Fisher Scientific, Pittsburgh, PA, USA) and then centrifuged at 24,000× g for 40 min at 4 °C. Finally, the pellet was re-suspended in cold 50 mM Tris-HCl buffer, aliquoted into 2 mL vials and stored at −80 °C. The total membrane protein concentration was measured using a Pierce BCA Protein Assay Kit (Thermo Scientific, Rockford, IL, USA) as per the manufacturer’s protocol.
(§3) Cannabinoid and opioid competitive radioligand binding assays were performed as previously described. Saturation experiments were performed for all the receptors to determine the receptor concentration and radioligand dissociation constant (Kd) for the membrane. Percent displacements were evaluated for all the cannabinoid and opioid subtypes with a triplicate of a fixed concentration (10 µg/mL for extracts and fractions and 10 μM for purified compounds). […] Control/test compounds were dissolved in DMSO at 10 μg/mL for extracts and fractions and 10 μM for purified compounds. […] The percent displacement was calculated to represent the ability of the samples to displace the radioligand binding for a given cannabinoid or opioid receptor subtype.
(§4) The percent displacement was calculated as follows: 100−binding of compound−nonspecific binding/specific binding×100
(§5) The competitive binding assays were performed using 12 serial dilutions of each compound ranging from 0.002 to 300 μM (control compounds were serially diluted from 10 μM to 0.06 nM). The cannabinoid assays were incubated for 90 min at 37 °C with gentle agitation. The opioid assays were incubated for 60 min at room temperature. Bound radioligands were collected on GF/C (cannabinoid) or GF/B plates (opioid) and washed 10 times with ice-cold 50 mM Tris-HCl (pH 7.4)/0.1% BSA (cannabinoid) or ice-cold 50 mM Tris-HCl (pH 7.4) (opioid). Radiodetection was measured with 50 µL (cannabinoid) or 25 µL (opioid) of MicroScint^TM-20 on a TopCount NXT HTS Microplate Scintillation Counter (PerkinElmer, Waltham, MA, USA). The IC50 and Ki values were calculated via a non-linear curve fit model using GraphPad Prism 5.0 software (GraphPad Software, Inc., San Diego, CA, USA). Each compound was tested in triplicate unless stated otherwise.

δ opioid receptor = molecular target: T2, δ opioid receptor (Homo sapiens, UniProt P41143); assay: Competitive radioligand binding assay, δ opioid; conditions: for inhibition at 10 µM: [3H]-enkephalin (DPDPE), read-out: Percent displacement, Δ
T2 construct: host or cells: HEK293, stably transfected; membranes
T2 sequence (P41143 whole entry): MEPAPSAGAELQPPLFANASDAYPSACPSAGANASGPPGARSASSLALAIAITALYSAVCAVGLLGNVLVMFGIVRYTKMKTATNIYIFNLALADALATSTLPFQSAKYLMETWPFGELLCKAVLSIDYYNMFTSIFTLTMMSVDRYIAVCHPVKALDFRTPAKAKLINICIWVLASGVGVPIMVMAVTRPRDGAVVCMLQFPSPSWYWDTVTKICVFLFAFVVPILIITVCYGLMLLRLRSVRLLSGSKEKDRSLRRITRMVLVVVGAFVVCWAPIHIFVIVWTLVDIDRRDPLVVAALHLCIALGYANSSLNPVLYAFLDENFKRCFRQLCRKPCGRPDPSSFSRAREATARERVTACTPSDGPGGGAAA
Description: as §1, §2, §3, §4, §5

[1] = Cytotoxicity, Neutral Red, SK-MEL; format: cell-based; conditions: human, SK-MEL malignant melanoma cells, Na = not active up to 50 µg/mL
Description: (§6) In vitro cytotoxic activity was determined against five human cancer cell lines—malignant melanoma (SK-MEL), epidermal carcinoma oral (KB), ductal carcinoma breast (BT-549), ovary carcinoma (SKOV-3) and cervical (HeLa) cancer cells—and two non-cancerous kidney cell lines (LLC-PK1 and Vero). All cell lines were obtained from the American Type Culture Collection (ATCC, Rockville, MD, USA). Each assay was performed in 96-well tissue culture-treated microplates. The cells were seeded at a density of 25,000 cells/well and incubated for 24 h. Samples at different concentrations were added, and the cells were incubated again for 48 h. At the end of the incubation, the cell viability was determined using Neutral Red dye according to a modification of the procedure used by Borenfreund et al.. IC50 values were determined from dose–response curves of the percent growth inhibition against test concentrations. Doxorubicin was used as a positive control, while DMSO was used as the negative (vehicle) control.

[2] = Cytotoxicity, Neutral Red, SK-OV-3; format: cell-based; conditions: human, SK-OV-3 ovary carcinoma cells, Na = not active up to 50 µg/mL
Description: as §6

Smad2/3 = assay: Luciferase reporter assay, Smad2/3, HeLa; format: cell-based, human
Description: (§7) Hela cells (or T98G cells) from ATCC were plated in white opaque 384-well plates at a density of 4300 cells/well in 30 µL of growth medium (DMEM with 10% FBS and 1% Pen/Strep). The next day, the medium was aspirated and replaced with DMEM containing 1% FBS. The cells were transfected with respective plasmids using X-tremeGENE HP DNA transfection reagent (Roche). After 24 h of transfection, the test agents were added to the transfected cells, followed 30 min later by an inducing agent: interleukin 6 (IL-6) for Stat3, TGF-β for Smad, m-wnt3a for Wnt and PMA for AP-1, NF-κB, E2F, Myc, ETS, Notch and Hedgehog. No inducer was added for FoXO and pTK. After 4 h or 6 h of induction, the cells were lysed via the addition of the One-Glo luciferase assay system (Promega; Madison, WI). The light output was detected in a GloMax®-Multi+ Detection System with Instinct® Software (Promega E 8051). This luciferase assay determines if the test agent is able to inhibit the activation of cancer-related signaling pathways. In the case of FoxO, the enhanced luciferase activity via the test agent was assessed.

AP-1 = assay: Luciferase reporter assay, AP-1, HeLa; format: cell-based, human; conditions: Homo sapiens; for IC50: read-out: IC50, Ap-1 (PMA)
Description: as §7

ETS = assay: Luciferase reporter assay, ETS, HeLa; format: cell-based, human
Description: as §7

Notch = assay: Luciferase reporter assay, Notch, HeLa; format: cell-based; conditions: Homo sapiens; for IC50: HeLa cells, inducer PMA, dash: not inhibited by more than 40% at 50 µmol/L
Description: as §7

Hedgehog = assay: Luciferase reporter assay, Hedgehog, HeLa; format: cell-based, human
Description: as §7

[3] = tested on: minimal thymidine kinase promoter (pTK); assay: Luciferase control vector pTK, HeLa; format: cell-based, human; conditions: HeLa cells; up to 50 µM; no inducer
Description: as §7

[4] = Solubility in aqueous assay buffer; conditions: aqueous buffer of the radioligand binding assay
[5] = Homo sapiens, HeLa cells, inducer TGF-beta, dash: not inhibited by more than 40% at 50 µmol/L
[6] = AP1, read-out: Additive effect (in % inhibition): percentage of luciferase induction, AP-1 (PMA)
[7] = Homo sapiens, HeLa cells, inducer PMA, dash: not inhibited by more than 40% at 50 µmol/L
[8] = HeLa cells, inducer PMA, dash: not inhibited by more than 40% at 50 µmol/L

Structure (SMILES) | Percent displacement, CB2 (CB2 receptor) | inhibition at 10 µM (δ opioid receptor) | IC50 at 48 h [1] | IC50 at 48 h [2] | IC50 (Smad2/3; [5]) | IC50 (AP-1) | IC50 (ETS; [7]) | IC50 (Notch) | IC50 (Hedgehog; [7]) | Inhibition of luciferase expression driven by pTK [3] | solubility [4] | further results
C[C@H]1CC[C@H]2[C@H](C1)c1c(O)cc(/C=C/c3ccccc3O)cc1OC2(C)C [compound 3, machaeriol C] | 55.5% | 4.6% | 25 µg/mL (≈ 68.6 µM) | > 50 µg/mL | 37 µM | 12 µM | 15 µM | > 50 µM | 10 µM | no inhibition | < 33.3 µM | Ki (CB2 receptor): > 7.76 µM; Ki (δ opioid receptor; Δ Ki ± SEM, NA = not active): 17.1 ± 2.61 µM; IC50, Smad2/3 (TGF-beta) (Smad2/3; HeLa cells, inducer TGF-beta, dash: not inhibited by more than 40% at 50 µmol/L): lacked activity; inhibition at 10 µM (Smad2/3; Homo sapiens, HeLa, 3 alone at 10 µM, compared to pTK as control, read-out: Additive effect (in % inhibition): percentage of luciferase induction, Smad2/3 (TGF-β)): 93%; inhibition at 10 µM (AP-1; [6]): 61%; inhibition at 10 µM (ETS; Homo sapiens, HeLa, 3 alone at 10 µM, compared to pTK as control, read-out: Additive effect (in % inhibition): percentage of luciferase induction, ETS (PMA)): 66%; inhibition at 10 µM (Notch; HeLa, 3 alone at 10 µM, compared to pTK as control, read-out: Additive effect (in % inhibition): percentage of luciferase induction, Notch- (PMA)): 115%; inhibition at 10 µM (Hedgehog; Homo sapiens, HeLa, 3 alone at 10 µM, compared to pTK as control, read-out: Additive effect (in % inhibition): percentage of luciferase induction, Hedgehog (PMA)): 66%
C=C(C)[C@H]1CC[C@H](C)C[C@@H]1c1c(O)cc(/C=C/c2ccccc2O)cc1O [compound 6, machaeridiol B] | 56.8% | 50.2% | 32 µg/mL (≈ 87.8 µM) | > 50 µg/mL | 1.2 µM | 5.9 µM | > 50 µM | 5.3 µM | > 50 µM | no inhibition | < 33.3 µM | Ki (CB2 receptor; * tested up to solubility limit, conc. at 33.3 μM and above precipitated, read-out: CB2 Ki ± SEM): > 2.18 µM; Ki (δ opioid receptor; NA = not active, read-out: Δ Ki ± SEM): 6.54 ± 0.77 µM; Ki (δ opioid receptor; read-out: Δ pKi (converted)): 6.46 µM; inhibition at 2 µM (Smad2/3; Homo sapiens, HeLa, 6 alone at 2 µM, compared to pTK as control, read-out: Additive effect (in % inhibition): percentage of luciferase induction, Smad2/3 (TGF-β)): 109%; inhibition at 2 µM (AP-1; [6]): 70%; IC50, ETS (PMA) (ETS; [8]): inactive; inhibition at 2 µM (ETS; Homo sapiens, HeLa, 6 alone at 2 µM, compared to pTK as control, read-out: Additive effect (in % inhibition): percentage of luciferase induction, ETS (PMA)): 107%; inhibition at 2 µM (Notch; HeLa, 6 alone at 2 µM, compared to pTK as control, read-out: Additive effect (in % inhibition): percentage of luciferase induction, Notch- (PMA)): 103%; IC50, Hedgehog (PMA) (Hedgehog; [8]): inactive; inhibition at 2 µM (Hedgehog; Homo sapiens, HeLa, 6 alone at 2 µM, compared to pTK as control, read-out: Additive effect (in % inhibition): percentage of luciferase induction, Hedgehog (PMA)): 92%
